Measurements: BindingDB's records for doi:10.1016/j.bmcl.2009.06.075 (Pfizer, 2009)

Assay: Antagonist activity at human P2Y12 receptor assessed as inhibition of ADP-induced platelet-rich plasma aggregation by turbidimetric method

**Q.** With CCOC(=O)N1CCN(C(=O)[C@H](CCC(=O)O)NC(=O)c2cc(OCCN)cc(-c3ccccc3)n2)CC1 [(4S)4-({[4-(2-Aminoethoxy)6-phenylpyridin-2-yl]carbonyl}-amino)5-[4-(ethoxycarbonyl)iperazin-1-yl]-5-oxopentanoicAcid] as the compound, how does the IC50 read?
**A.** 7.5 µM

**Q.** Which IC50 does the source give for CCCCCOC(=O)N1CCN(C(=O)[C@H](CCC(=O)O)NC(=O)c2cc(OCCO)cc(-c3ccccc3)n2)CC1 [(4S)4-({[4-(2-Hydroxyethoxy)6-phenylpyridin-2-yl]carbonyl}-amino)5-oxo-5-{4-[(pentyloxy)carbonyl]piperazin-1-yl}pentanoicAcid] here?
**A.** 11.5 µM

**Q.** Which IC50 does the source give for CCCCCOC(=O)N1CCN(C(=O)[C@H](CCC(=O)O)NC(=O)c2cc(OCCOC)cc(-c3ccccc3)n2)CC1 [(4S)4-({[4-(2-Methoxyethoxy)6-phenylpyridin-2-yl]carbonyl}amino)5-oxo-5-{4-[(pentyloxy)carbonyl]piperazin-1-yl}pentanoic Acid] here?
**A.** 4.3 µM

**Q.** For CCCCCOC(=O)N1CCN(C(=O)[C@H](CCC(=O)O)NC(=O)c2cc(N3CCC(CN)CC3)cc(-c3ccccc3)n2)CC1 [(4S)4-[({4-[4-(Aminomethyl)piperidin-1-yl]-6-phenylpyridin-2-yl}carbonyl)amino]-5-oxo-5-{4-[(pentyloxy)carbonyl]piperazin-1-yl}pentanoic Acid], which IC50 is on record?
**A.** 0.77 µM

**Q.** With CCCCCOC(=O)N1CCN(C(=O)[C@H](CCC(=O)O)NC(=O)c2cc(N3CCC(COC)CC3)cc(-c3ccccc3)n2)CC1 [(4S)4-[({4-[4-(Methoxymethyl)piperidin-1-yl]-6-phenylpyridin-2-yl}carbonyl)amino]-5-oxo-5-{4-[(pentyloxy)carbonyl]piperazin-1-yl}pentanoic Acid] as the compound, how does the IC50 read?
**A.** 3.9 µM

**Q.** Which IC50 does the source give for CCCCOc1cc(C(=O)N[C@@H](CCC(=O)O)C(=O)N2CCN(C(=O)OCC)CC2)nc(-c2ccccc2)c1 [(4S)4-{[(4-Butoxy-6-phenylpyridin-2-yl)carbonyl]amino}-5-[4-(ethoxycarbonyl)iperazin-1-yl]-5-oxopentanoic Acid] here?
**A.** 33.9 µM

**Q.** With CCCCCOC(=O)N1CCN(C(=O)[C@H](CCC(=O)O)NC(=O)c2cc(OCCCC)cc(-c3ccccc3)n2)CC1 [(4S)4-{[(4-Butoxy-6-phenylpyridin-2-yl)carbonyl]amino}-5-oxo-5-{4-[(pentyloxy)carbonyl]piperazin-1-yl}pentanoic Acid] as the compound, how does the IC50 read?
**A.** 28.4 µM

**Q.** Which IC50 does the source give for CCCOC(=O)N1CCN(C(=O)[C@H](CCC(=O)O)NC(=O)c2cccc(-c3ccccc3)n2)CC1 [(4S)5-Oxo-4-{[(6-phenylpyridin-2-yl)carbonyl]amino}-5-[4-(propoxycarbonyl)iperazin-1-yl]pentanoic Acid] here?
**A.** 62 µM

**Q.** Which IC50 does the source give for CCCCCOC(=O)N1CCN(C(=O)[C@H](CCC(=O)O)NC(=O)c2cc(OC3CCNCC3)cc(-c3ccccc3)n2)CC1 [(4S)5-Oxo-5-{4-[(pentyloxy)carbonyl]piperazin-1-yl}-4-({[6-phenyl-4-(piperidin-4-yloxy)yridin-2-yl]carbonyl}amino)entanoicAcid] here?
**A.** 0.55 µM

**Q.** With Cc1cccc(N2CCN(C(=O)[C@H](CCC(=O)O)NC(=O)c3cccc(-c4ccccc4)n3)CC2)c1 [(4S)5-[4-(3-Methylphenyl)piperazin-1-yl]-5-oxo-4-{[(6-phenylpyridin-2-yl)carbonyl]amino}pentanoicAcid] as the compound, how does the IC50 read?
**A.** > 100 µM

**Q.** For CCCCOC(=O)N1CCN(C(=O)[C@H](CCC(=O)O)NC(=O)c2cc(OCCOC)cc(-c3ccccc3)n2)CC1 [(4S)5-[4-(Butoxycarbonyl)iperazin-1-yl]-4-({[4-(2-methoxyethoxy)6-phenylpyridin-2-yl]carbonyl}amino)5-oxopentanoicAcid], which IC50 is on record?
**A.** 4.4 µM

**Q.** Which IC50 does the source give for CCCCOC(=O)N1CCN(C(=O)[C@H](CCC(=O)O)NC(=O)c2cc(OCCCC)cc(-c3ccccc3)n2)CC1 [(4S)5-[4-(Butoxycarbonyl)iperazin-1-yl]-4-{[(4-butoxy-6-phenylpyridin-2-yl)carbonyl]amino}-5-oxopentanoic Acid] here?
**A.** 26.9 µM

**Q.** For CCOC(=O)N1CCN(C(=O)[C@H](CCC(=O)O)NC(=O)c2cc(OCCO)cc(-c3ccccc3)n2)CC1 [(4S)5-[4-(Ethoxycarbonyl)iperazin-1-yl]-4-({[4-(2-hydroxyethoxy)6-phenylpyridin-2-yl]carbonyl}amino)5-oxopentanoicAcid], which IC50 is on record?
**A.** 7.6 µM

**Q.** For CCOC(=O)N1CCN(C(=O)[C@H](CCC(=O)O)NC(=O)c2cc(OCCCO)cc(-c3ccccc3)n2)CC1 [(4S)5-[4-(Ethoxycarbonyl)iperazin-1-yl]-4-({[4-(3-hydroxypropoxy)6-phenylpyridin-2-yl]carbonyl}amino)5-oxopentanoic Acid], which IC50 is on record?
**A.** 9 µM

**Q.** With CCOC(=O)N1CCN(C(=O)[C@H](CCC(=O)O)NC(=O)c2cc(N3CCC(O)CC3)cc(-c3ccccc3)n2)CC1 [(4S)5-[4-(Ethoxycarbonyl)piperazin-1-yl]-4-({[4-(4-hydroxypiperidin-1-yl)6-phenylpyridin-2-yl]carbonyl}amino)5-oxopentanoicAcid] as the compound, how does the IC50 read?
**A.** 9.8 µM

**Q.** With CCOC(=O)N1CCN(C(=O)[C@H](CCC(=O)O)NC(=O)c2cc(NC)cc(-c3ccccc3)n2)CC1 [(4S)5-[4-(Ethoxycarbonyl)piperazin-1-yl]-4-({[4-(methylamino)6-phenylpyridin-2-yl]carbonyl}amino)5-oxopentanoic Acid] as the compound, how does the IC50 read?
**A.** 45 µM

**Q.** For CCOC(=O)N1CCN(C(=O)[C@H](CCC(=O)O)NC(=O)c2cc(N3CCC(COC)CC3)cc(-c3ccccc3)n2)CC1 [(4S)5-[4-(Ethoxycarbonyl)piperazin-1-yl]-4-[({4-[4-(methoxymethyl)piperidin-1-yl]-6-phenylpyridin-2-yl}carbonyl)amino]-5-oxopentanoic Acid], which IC50 is on record?
**A.** 9.9 µM

**Q.** Which IC50 does the source give for CCOC(=O)N1CCN(C(=O)[C@H](CCC(=O)O)NC(=O)c2cc(N3CCC(N4CCCC4)CC3)cc(-c3ccccc3)n2)CC1 [(4S)5-[4-(Ethoxycarbonyl)piperazin-1-yl]-5-oxo-4-({[6-phenyl-4-(4-pyrrolidin-1-ylpiperidin-1-yl)pyridin-2-yl]carbonyl}amino)pentanoic Acid] here?
**A.** 2 µM

**Q.** Which IC50 does the source give for CCCCCCCCOC(=O)N1CCN(C(=O)[C@H](CCC(=O)O)NC(=O)c2cccc(-c3ccccc3)n2)CC1 [(4S)5-{4-[(Octyloxy)carbonyl]piperazin-1-yl}-5-oxo-4-{[(6-phenylpyridin-2-yl)carbonyl]amino}pentanoic Acid] here?
**A.** > 100 µM

**Q.** Which IC50 does the source give for CCOC(=O)N1CCN(C(=O)[C@H](CCC(=O)O)NC(=O)c2cc(OC(CC)C(=O)N(CC)CC)cc(-c3ccccc3)n2)CC1 (stereo partly drawn) [(4S)-4-(4-(1-(diethylamino)-1-oxobutan-2-yloxy)-6-phenylpicolinamido)-5-(4-(ethoxycarbonyl)piperazin-1-yl)-5-oxopentanoic acid] here?
**A.** 3 µM

**Q.** For Cc1cccc(N2CCN(C(=O)[C@H](CCC(=O)O)NC(=O)c3cc(-c4ccccc4)cc(-c4ccccc4)n3)CC2)c1 [(S)-4-(4,6-diphenylpicolinamido)-5-oxo-5-(4-m-tolylpiperazin-1-yl)pentanoic acid], which IC50 is on record?
**A.** > 100 µM

**Q.** With CCOC(=O)N1CCN(C(=O)[C@H](CCC(=O)O)NC(=O)c2cc(NCCN(C)C)cc(-c3ccccc3)n2)CC1 [(S)-4-(4-(2-(dimethylamino)ethylamino)-6-phenylpicolinamido)-5-(4-(ethoxycarbonyl)piperazin-1-yl)-5-oxopentanoic acid] as the compound, how does the IC50 read?
**A.** 36 µM

**Q.** For CC(C)OC(=O)N1CCN(C(=O)[C@H](CCC(=O)O)NC(=O)c2cc(OCCO)cc(-c3ccccc3)n2)CC1 [(S)-4-(4-(2-hydroxyethoxy)-6-phenylpicolinamido)-5-(4-(isopropoxycarbonyl)piperazin-1-yl)-5-oxopentanoic acid], which IC50 is on record?
**A.** 25.6 µM

**Q.** Which IC50 does the source give for CCOC(=O)N1CCN(C(=O)[C@H](CCC(=O)O)NC(=O)c2cc(OCCCN)cc(-c3ccccc3)n2)CC1 [(S)-4-(4-(3-aminopropoxy)-6-phenylpicolinamido)-5-(4-(ethoxycarbonyl)piperazin-1-yl)-5-oxopentanoic acid] here?
**A.** 3.8 µM

**Q.** With CCOC(=O)N1CCN(C(=O)[C@H](CCC(=O)O)NC(=O)c2cc(N3CCN(CCN(C)C)CC3)cc(-c3ccccc3)n2)CC1 [(S)-4-(4-(4-(2-(dimethylamino)ethyl)piperazin-1-yl)-6-phenylpicolinamido)-5-(4-(ethoxycarbonyl)piperazin-1-yl)-5-oxopentanoic acid] as the compound, how does the IC50 read?
**A.** 2.3 µM

**Q.** For NCC1CCN(c2cc(C(=O)N[C@@H](CCC(=O)O)C(=O)N3CCN(C(=O)OCCC4CCCC4)CC3)nc(-c3ccccc3)c2)CC1 [(S)-4-(4-(4-(aminomethyl)piperidin-1-yl)-6-phenylpicolinamido)-5-(4-((2-cyclopentylethoxy)carbonyl)piperazin-1-yl)-5-oxopentanoic acid], which IC50 is on record?
**A.** 14.1 µM

**Q.** Which IC50 does the source give for CCOC(=O)N1CCN(C(=O)[C@H](CCC(=O)O)NC(=O)c2cc(N3CCC(CN)CC3)cc(-c3ccccc3)n2)CC1 [(S)-4-(4-(4-(aminomethyl)piperidin-1-yl)-6-phenylpicolinamido)-5-(4-(ethoxycarbonyl)piperazin-1-yl)-5-oxopentanoic acid] here?
**A.** 3.3 µM

**Q.** For CCCCCCOC(=O)N1CCN(C(=O)[C@H](CCC(=O)O)NC(=O)c2cc(N3CCC(CN)CC3)cc(-c3ccccc3)n2)CC1 [(S)-4-(4-(4-(aminomethyl)piperidin-1-yl)-6-phenylpicolinamido)-5-(4-(hexyloxycarbonyl)piperazin-1-yl)-5-oxopentanoic acid], which IC50 is on record?
**A.** 1.6 µM

**Q.** Which IC50 does the source give for CCOC(=O)N1CCN(C(=O)[C@H](CCC(=O)O)NC(=O)c2cc(N3CCC(N)CC3)cc(-c3ccccc3)n2)CC1 [(S)-4-(4-(4-aminopiperidin-1-yl)-6-phenylpicolinamido)-5-(4-(ethoxycarbonyl)piperazin-1-yl)-5-oxopentanoic acid] here?
**A.** 2.8 µM

**Q.** With CCCCCOC(=O)N1CCN(C(=O)[C@H](CCC(=O)O)NC(=O)c2cc(N3CCC(O)CC3)cc(-c3ccccc3)n2)CC1 [(S)-4-(4-(4-hydroxypiperidin-1-yl)-6-phenylpicolinamido)-5-oxo-5-(4-(pentyloxycarbonyl)piperazin-1-yl)pentanoic acid] as the compound, how does the IC50 read?
**A.** 2.4 µM

**Q.** For CCOC(=O)N1CCN(C(=O)[C@H](CCC(=O)O)NC(=O)c2cc(NCc3ccccc3)cc(-c3ccccc3)n2)CC1 [(S)-4-(4-(benzylamino)-6-phenylpicolinamido)-5-(4-(ethoxycarbonyl)piperazin-1-yl)-5-oxopentanoic acid], which IC50 is on record?
**A.** 81 µM

**Q.** With CCOC(=O)N1CCN(C(=O)[C@H](CCC(=O)O)NC(=O)c2cc(OCc3ccccc3)cc(-c3ccccc3)n2)CC1 [(S)-4-(4-(benzyloxy)-6-phenylpicolinamido)-5-(4-(ethoxycarbonyl)piperazin-1-yl)-5-oxopentanoic acid] as the compound, how does the IC50 read?
**A.** 31 µM
